# “Also recorded” adds a separate entry of the source.
# Tests used:
# STAT5B mRNA = test: STAT5B RT-qPCR in CP-CML cells; format: cell-based, human; details: CP-CML cells after 10 days of liquid culture without cytokines; normalized to GAPDH
# Description: RNA extraction and RT-qPCR analysis.
# [1] = Imatinib plasma levels in three CML patients; format: in vivo, human
# CP-CML LTC-ICs = test: LTC-IC assay with limiting dilution analysis; format: cell-based, human
# Description: Colony Forming Cell (CFC) and Long Term Culture—Initiating Cell (LTC-IC) assays. […] Cells were scored and collected after 14 day incubation at 37° C. and 5% CO2. After scoring, colonies were washed with PBS and kept frozen in RNAlater® (Invitrogen) for subsequent analysis. […] After five weeks with weekly change of one half medium volume, all cells were transferred in alpha-MEM based methylcellulose medium (GF H4434, Stemcell technologies) to determine the total clonogenic cell content of each LTC. LTC-IC frequencies were determined using the L-Calc software (Stemcell technologies).
# CD34+ CP-CML cells = test: Liquid culture of CD34+ CP-CML cells (fold expansion, viable cells); format: cell-based, human; parameters: viab (%): concentration or dose not given beside the values; details: for viab (%) / Fold exp: serum-free medium without cytokines; for Fold exp, mean: mean of 7 patients
# Description: Cell culture and proliferation assays. K562 cells (2×10^5) were cultured in 96-well plates, in complete Dulbecco's Modified Eagle medium supplemented with 10% fetal calf serum (Gibco®, Life technologies) alone or with variable concentrations of pioglitazone or troglitazone. […] Eight replicates were used for each set of conditions and results were obtained after three independents experiments. CD34^+ cells from patients in CP-CML at diagnosis or umbilical cord blood were immunoselected (CD34 microBead Kit, Miltenyi Biotec) according to the manufacturer's instructions. […] Ph1^+-CD34^+ cells were cultured in serum free medium (SFM) StemSpan (StemCell Technologies) without growth factors.
# Flow cytometry. […] For all experiment, cell viability was assessed using SYTOX® Blue dead cell stain (Invitrogen Life Technologies).
# STAT5 = STAT5 phosphorylation (flow cytometry) and STAT5 protein (Western blot) in K562 cells; format: cell-based; details: Imatinib 1 μM
# Description: Intracellular STAT5 phosphorylation assays. […] Cells were fixed and permeabilized using Cytofix/Cytoperm kit (BD Pharmingen) and stained with Alexa Fluor® 488-anti-phospho-STAT5 mAb (BD Phosflow) or Alexa Fluor® 488-isotype-matched control to obtain fluorescence minus comparative in each experiment. Analysis was carried on a minimal number of 50,000 events in the viable cell gate. […] (untreated cells p-STAT5 MFI-non treated cells isotype-control MFI)-(drug treated cells p-STAT5 MR-drug treated cells isotype-control MFI). Western blot analysis. For STAT5 protein analysis, K562 cells (2.5×10^5) were lysed in RIPA lysis buffer on ice. […] Proteins were transferred to Hybond N+ filters (Amersham). Membranes were probed with the following antibodies: STAT5 (sc-1656), actin (sc-8432), and goat anti-mouse IgG-HRP (sc-2005) (Santa Cruz Biotechnology Inc.). Antibody binding was detected by the enhanced chemiluminescence ECL+ (Amersham).
# CML patients [2] = test: BCR-ABL/ABL RT-qPCR follow-up of three CML patients given pioglitazone on imatinib; format: in vivo, human
# CML patients [3] = test: ACTIM clinical trial: molecular response and safety; format: in vivo, human
# Description: BCR-ABL transcript level was monitored every 3 months during the study period. Primary objective was the proportion of patients achieving a confirmed undetectable level of BCR-ABL transcript. Secondary objectives included cumulative incidence of CMR4.5 and safety.
# [4] = tested on: human cord blood CD34+ cells expressing BCR-ABL; test: CFC assay after lentivector-mediated expression of BCR-ABL in cord blood CD34+ cells; format: cell-based; details: BCR-ABL vs eGFP lentivector; drug added for 48 h prior; p<0.002
# Description: For CFC assays, CD34^+ cells were suspended (1×10^4) in 3 ml of alpha-MEM based methylcellulose medium (GF H4434, Stemcell Technologies). Cells were scored and collected after 14 day incubation at 37° C. and 5% CO2.
# An SIV GAE-SSFV-eGFP vector was used as a control.
# Cells were suspended (1×10^6/ml) in StemSpan (StemCell Technologies, France) supplemented with protamine sulfate (4 μg/ml), SCF (100 ng/ml), Flt-3-L (100 ng/ml), IL-3 (20 ng/ml), and IL-6 (20 ng/ml), in a 96-well plate coated with RetroNectin® (Takara Shuzo Co., Japan). Cell suspensions were incubated for 16 hours. Lentiviral vectors were then added and cell suspensions incubated for 12 hours. Cells were washed twice before being seeded.
# [5] = ACTIM companion study: imatinib trough levels; format: in vivo, human; details: p=ns
# [6] = pioglitazone added to imatinib, 24 evaluable patients
# Description for CP-CML CD34+ cells: CSFE assays. Fresh CD34^+-enriched cells were stained with 2 μM of 5-(and 6-) carboxyfluorescein diacetate succinimidyl diester (CFSE, Invitrogen). […] Cells were harvested at variable time points as indicated, collected in BD Trucount™ tubes for absolute count (BD Biosciences) and labeled with anti-CD45 and anti-CD34. Then, cells were diluted in 1 mL of phosphate-buffered saline (PBS, Invitrogen Life Technologies) containing 2% fetal calf serum (PAA) and stained for viability. All analyses were carried out on a BD FACS Canto2 Flow Cytometer.
structure (smiles),measurement,setting,value
Cc1ccc(NC(=O)c2ccc(CN3CCN(C)CC3)cc2)cc1Nc1nccc(-c2cccnc2)n1 [Imatinib],decrease of STAT5B mRNA levels,STAT5B mRNA,1.5 fold
same,plasma levels,"[1]; Patient 1, imatinib 300-400 mg/day",924 ng/mL
same,plasma levels,"[1]; Patient 2, imatinib 300-400 mg/day",310 ng/mL
same,plasma levels,"[1]; Patient 3, imatinib 400 mg/day",790 ng/mL
same,reduction of the frequency of CP-CML LTC-ICs (in words),CP-CML LTC-ICs; p=0.067 and p=0.02,unable to reduce significantly
same,viab (%),"CD34+ CP-CML cells; Patient 1, D 3 in culture",0.1%
same,viab (%),"CD34+ CP-CML cells; Patient 1, D 7 in culture",0.10%
same,viab (%),"CD34+ CP-CML cells; Patient 2, D 3 in culture",31.00%
same,viab (%),"CD34+ CP-CML cells; Patient 2, D 7 in culture",29.70%
same,viab (%),"CD34+ CP-CML cells; Patient 3, D 3 in culture",4.10%
same,viab (%),"CD34+ CP-CML cells; Patient 3, D 7 in culture",5.90%
same,viab (%),"CD34+ CP-CML cells; Patient 4, D 3 in culture",86.00%
same,viab (%),"CD34+ CP-CML cells; Patient 4, D 7 in culture",54.00%
same,viab (%),"CD34+ CP-CML cells; Patient 5, D 3 in culture",54.5%
same,viab (%),"CD34+ CP-CML cells; Patient 5, D 7 in culture",56.00%
same,viab (%),"CD34+ CP-CML cells; Patient 6, D 3 in culture",85.00%
same,viab (%),"CD34+ CP-CML cells; Patient 6, D 7 in culture",73.00%
same,viab (%),"CD34+ CP-CML cells; Patient 7, D 3 in culture",84.00%
same,viab (%),"CD34+ CP-CML cells; Patient 7, D 7 in culture",66.00%
same,action on STAT5 phosphorylation,STAT5,acts rapidly (minutes) by preventing STAT5 phosphorylation
same,viable CD34+ cells that never divided or had divided only once,"CP-CML CD34+ cells; Patient 4, vs. 5% for the untreated control",34%
same,effect on cell cycle status / quiescence,CP-CML CD34+ cells; liquid culture without cytokines,induced a selection of insensitive quiescent CML cells
CCc1ccc(CCOc2ccc(CC3SC(=O)NC3=O)cc2)nc1 (centres unmarked) [pioglitazone],duration of CMR(Slog),"CML patients [2]; Patient 1, pioglitazone 30 mg/day added after 5 years of imatinib therapy",56 months
same,duration of CMR(Slog),"CML patients [2]; Patient 2, pioglitazone 30 mg/day added after 6 year of imatinib therapy, then withdrew",12 months
same,time without molecular relapse after stopping imatinib treatment,CML patients [2]; Patient 3,6 months
same,time to CMR(Slog),"CML patients [2]; Patient 3, pioglitazone 45 mg/day added to imatinib",6 months
same,duration of CMR(Slog),"CML patients [2]; Patient 3, pioglitazone 45 mg/day added to imatinib 400 mg/day",28 months
same,decrease of STAT5B mRNA levels,STAT5B mRNA,8.5 fold
same,reduction of the frequency of CP-CML LTC-ICs,CP-CML LTC-ICs; limiting dilution analysis,2.4 fold
same,patients with a confirmed undetectable level of BCR-ABL transcript,"CML patients [3]; pioglitazone 30 mg/d 2 months then 45 mg/d added to imatinib, 24 evaluable patients",14%
same,discontinuation due to adverse events,CML patients [3]; [6],No patient discontinued due to adverse events
same,main adverse events,CML patients [3]; [6],weight gain and worsening fluid retention in 3 patients
same,one year cumulative incidence of CMR4.5,"CML patients [3]; pioglitazone added to imatinib, control group 27% (p=0.02)",57%
same,Fold exp,"CD34+ CP-CML cells; Patient 1, D 3 in culture",0.75 fold
same,viab (%),"CD34+ CP-CML cells; Patient 1, D 3 in culture",19.00%
same,Fold exp,"CD34+ CP-CML cells; Patient 1, D 7 in culture",0.39 fold
same,viab (%),"CD34+ CP-CML cells; Patient 1, D 7 in culture",9.00%
same,Fold exp,"CD34+ CP-CML cells; Patient 2, D 3 in culture",1.25 fold
same,viab (%),"CD34+ CP-CML cells; Patient 2, D 3 in culture",47.00%
same,Fold exp,"CD34+ CP-CML cells; Patient 2, D 7 in culture",2.96 fold
same,viab (%),"CD34+ CP-CML cells; Patient 2, D 7 in culture",71.00%
same,Fold exp,"CD34+ CP-CML cells; Patient 3, D 3 in culture",0.27 fold
same,viab (%),"CD34+ CP-CML cells; Patient 3, D 3 in culture",9.90%
same,Fold exp,"CD34+ CP-CML cells; Patient 3, D 7 in culture",1.69 fold
same,viab (%),"CD34+ CP-CML cells; Patient 3, D 7 in culture",17.90%
same,Fold exp,"CD34+ CP-CML cells; Patient 4, D 3 in culture",2.02 fold
same,viab (%),"CD34+ CP-CML cells; Patient 4, D 3 in culture",93.00%
same,Fold exp,"CD34+ CP-CML cells; Patient 4, D 7 in culture",1.67 fold
same,viab (%),"CD34+ CP-CML cells; Patient 4, D 7 in culture",54.00%
same,Fold exp,"CD34+ CP-CML cells; Patient 5, D 3 in culture",1.32 fold
same,viab (%),"CD34+ CP-CML cells; Patient 5, D 3 in culture",73.00%
same,Fold exp,"CD34+ CP-CML cells; Patient 5, D 7 in culture",0.93 fold
same,viab (%),"CD34+ CP-CML cells; Patient 5, D 7 in culture",86.00%
same,Fold exp,"CD34+ CP-CML cells; Patient 6, D 3 in culture",1.69 fold
same,viab (%),"CD34+ CP-CML cells; Patient 6, D 3 in culture",88.00%
same,Fold exp,"CD34+ CP-CML cells; Patient 6, D 7 in culture",1.87 fold
same,viab (%),"CD34+ CP-CML cells; Patient 6, D 7 in culture",85.00%
same,Fold exp,"CD34+ CP-CML cells; Patient 7, D 3 in culture",0.86 fold
same,viab (%),"CD34+ CP-CML cells; Patient 7, D 3 in culture",84.00%
same,Fold exp,"CD34+ CP-CML cells; Patient 7, D 7 in culture",1.48 fold
same,viab (%),"CD34+ CP-CML cells; Patient 7, D 7 in culture",33.00%
same,"Fold exp, mean",CD34+ CP-CML cells; D 3 in culture,1.17 fold
same,"Fold exp, mean",CD34+ CP-CML cells; D 7 in culture,1.54 fold
same,"degree of reduction in colony forming cells (CFC), greater when BCR-ABL was expressed",[4],1.9 fold
same,interaction between imatinib and pioglitazone in term of through level,[5],No interaction; also recorded: lack of interaction
